According to ChEMBL document CHEMBL1909046, “DrugMatrix in vitro pharmacology data”:

Columns and labels:
[1] = target: T1, Type-2 angiotensin II receptor (Homo sapiens, UniProt P50052); format: cell-based; conditions: cho-k1; note: in other assays of this panel Not Active means under 50% inhibition at 10 µM
T1 sequence (P50052 whole entry): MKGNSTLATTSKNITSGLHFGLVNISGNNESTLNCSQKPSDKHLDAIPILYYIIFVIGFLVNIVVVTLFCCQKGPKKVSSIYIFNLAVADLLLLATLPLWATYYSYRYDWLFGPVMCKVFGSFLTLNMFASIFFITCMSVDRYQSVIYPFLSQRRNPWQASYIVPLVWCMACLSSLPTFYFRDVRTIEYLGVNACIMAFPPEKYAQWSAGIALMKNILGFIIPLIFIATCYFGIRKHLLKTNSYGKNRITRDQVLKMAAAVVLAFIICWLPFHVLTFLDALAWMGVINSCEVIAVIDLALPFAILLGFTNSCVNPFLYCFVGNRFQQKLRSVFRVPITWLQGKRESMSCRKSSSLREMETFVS

[2] = target: T2, Polyunsaturated fatty acid lipoxygenase ALOX15 (Oryctolagus cuniculus, UniProt P12530); test: biochemical; format: tissue-based, Reticulocytes; conditions: reticulocytes;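 note: inhibition of 15-lipoxygenase enzyme activity measured with linoleic acid as the substrate; in other assays of this panel Not Active means under 50% inhibition at 10 µM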
T2 sequence (P12530 whole entry): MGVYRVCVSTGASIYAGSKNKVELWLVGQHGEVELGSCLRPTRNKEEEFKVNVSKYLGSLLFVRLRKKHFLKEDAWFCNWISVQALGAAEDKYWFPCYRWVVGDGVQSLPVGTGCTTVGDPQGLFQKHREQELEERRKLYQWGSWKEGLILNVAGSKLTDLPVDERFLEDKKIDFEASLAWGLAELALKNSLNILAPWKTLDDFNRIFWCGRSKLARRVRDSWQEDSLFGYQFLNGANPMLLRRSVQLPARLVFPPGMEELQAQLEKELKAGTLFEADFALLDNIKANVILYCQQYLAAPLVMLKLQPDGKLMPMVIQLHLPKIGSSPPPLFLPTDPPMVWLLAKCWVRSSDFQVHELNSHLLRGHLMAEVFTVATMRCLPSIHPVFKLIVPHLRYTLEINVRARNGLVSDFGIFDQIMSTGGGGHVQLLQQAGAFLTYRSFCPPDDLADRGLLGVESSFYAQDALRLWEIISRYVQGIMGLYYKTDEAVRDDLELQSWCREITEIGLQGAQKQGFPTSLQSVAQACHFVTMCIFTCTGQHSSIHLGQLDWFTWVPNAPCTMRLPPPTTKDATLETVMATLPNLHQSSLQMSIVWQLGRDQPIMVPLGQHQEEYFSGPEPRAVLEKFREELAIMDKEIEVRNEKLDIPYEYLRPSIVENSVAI

[3] = target: T3, Amine oxidase [flavin-containing] A (Homo sapiens, UniProt P21397); test: DRUGMATRIX: Monoamine Oxidase MAO-A enzyme inhibition (substrate: Kynuramine); design: species or system BTI-TN-5B1-4; conditions: bti-tn-5b1-4; Not Active = under 50% inhibition at 10 µM
T3 sequence (P21397 whole entry): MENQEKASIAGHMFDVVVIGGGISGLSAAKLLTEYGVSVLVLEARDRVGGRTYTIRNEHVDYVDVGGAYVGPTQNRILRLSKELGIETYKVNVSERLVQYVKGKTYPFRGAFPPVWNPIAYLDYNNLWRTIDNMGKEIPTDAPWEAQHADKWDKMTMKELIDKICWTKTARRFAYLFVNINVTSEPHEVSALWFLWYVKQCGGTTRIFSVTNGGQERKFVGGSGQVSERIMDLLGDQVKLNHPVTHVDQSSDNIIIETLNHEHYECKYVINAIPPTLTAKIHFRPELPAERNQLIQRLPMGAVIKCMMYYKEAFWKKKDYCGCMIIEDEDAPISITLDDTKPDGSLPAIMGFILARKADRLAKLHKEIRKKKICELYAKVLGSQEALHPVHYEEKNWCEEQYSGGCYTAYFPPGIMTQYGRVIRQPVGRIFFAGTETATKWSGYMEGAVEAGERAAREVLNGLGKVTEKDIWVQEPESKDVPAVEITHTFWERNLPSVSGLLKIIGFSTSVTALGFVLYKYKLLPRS

[4] = target: T4, Muscarinic acetylcholine receptor M2 (Homo sapiens, UniProt P08172); format: cell membranes, CHO-K1, Membrane; conditions: cho-k1; note: in other assays of this panel Not Active means under 50% inhibition at 10 µM
T4 sequence (P08172 whole entry): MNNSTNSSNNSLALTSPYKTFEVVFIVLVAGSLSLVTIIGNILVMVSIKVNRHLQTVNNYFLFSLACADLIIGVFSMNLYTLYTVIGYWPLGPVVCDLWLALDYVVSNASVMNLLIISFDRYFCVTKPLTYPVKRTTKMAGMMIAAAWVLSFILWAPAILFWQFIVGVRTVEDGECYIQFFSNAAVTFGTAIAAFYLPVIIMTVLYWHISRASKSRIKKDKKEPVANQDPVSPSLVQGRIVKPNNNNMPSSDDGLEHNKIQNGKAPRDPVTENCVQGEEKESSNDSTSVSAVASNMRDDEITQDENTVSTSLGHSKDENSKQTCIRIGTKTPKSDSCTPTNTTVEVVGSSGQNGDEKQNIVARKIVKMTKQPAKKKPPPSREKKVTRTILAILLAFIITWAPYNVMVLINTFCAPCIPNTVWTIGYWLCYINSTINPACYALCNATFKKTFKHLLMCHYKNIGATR

[5] = DRUGMATRIX: Nicotinic Acetylcholine radioligand binding (ligand: [125I] Epibatidine); format: cell membranes, Membrane; conditions: imr-32; Not Active = under 50% inhibition at 10 µM
[6] = DRUGMATRIX: Phorbol Ester radioligand binding (ligand: [3H] PDBu); format: cell membranes, Mus musculus, ICR, Brain, Membrane; conditions: Not Active = under 50% inhibition at 10 µM
[7] = DRUGMATRIX: Phosphodiesterase PDE4 enzyme inhibition (substrate: [3H]cAMP + cAMP); conditions: u-937; Not Active = under 50% inhibition at 10 µM
Interstitial collagenase = target: T5, Interstitial collagenase (Homo sapiens, UniProt P03956); format: tissue-based, Rheumatoid synovial fibroblasts;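 note: MMP-1 enzyme inhibition assay using a peptide substrate; in other assays of this panel Not Active means under 50% inhibition at 10 µM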
T5 sequence (P03956 whole entry): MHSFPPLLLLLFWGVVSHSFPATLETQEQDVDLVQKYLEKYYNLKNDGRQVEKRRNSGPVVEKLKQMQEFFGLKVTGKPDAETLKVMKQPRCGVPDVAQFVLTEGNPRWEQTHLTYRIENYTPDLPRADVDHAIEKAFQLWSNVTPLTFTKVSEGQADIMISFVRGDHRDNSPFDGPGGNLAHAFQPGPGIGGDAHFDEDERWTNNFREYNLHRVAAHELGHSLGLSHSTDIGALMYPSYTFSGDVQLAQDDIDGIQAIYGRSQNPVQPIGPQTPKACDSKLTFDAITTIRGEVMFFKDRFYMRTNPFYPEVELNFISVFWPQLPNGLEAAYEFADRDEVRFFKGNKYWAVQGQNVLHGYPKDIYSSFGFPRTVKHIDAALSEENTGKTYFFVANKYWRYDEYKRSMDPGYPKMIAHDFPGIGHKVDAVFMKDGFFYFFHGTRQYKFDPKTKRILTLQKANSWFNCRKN

CCOC(=O)[C@H](CCc1ccccc1)N[C@@H](C)C(=O)N1[C@H](C(=O)O)C[C@@H]2CCC[C@@H]21
Not Active: IC50 [1] | IC50 [2] | IC50 [3] | IC50 [4] | IC50 [5] | Ki [5] | IC50 [6] | Ki [6] | IC50 [7] | Ki [7] | IC50 (Interstitial collagenase)

CN[C@@H]1[C@@H](O)[C@@H](O[C@@H]2[C@@H](O)[C@H](O[C@H]3OC(CN)=CC[C@H]3N)[C@@H](N)C[C@H]2N)OC[C@]1(C)O [SISOMICIN]
Not Active: IC50 [1] | IC50 [2] | IC50 [3] | IC50 [4] | IC50 [5] | Ki [5] | IC50 [6] | Ki [6] | IC50 [7] | Ki [7] | IC50 (Interstitial collagenase)

Clc1ccc(C(c2ccccc2Cl)C(Cl)Cl)cc1 (configuration not stated) [MITOTANE]
Not Active: IC50 [1] | IC50 [2] | IC50 [3] | IC50 [4] | IC50 [5] | Ki [5] | IC50 [6] | Ki [6] | IC50 [7] | Ki [7] | IC50 (Interstitial collagenase)

CN(C)[C@@H]1C(O)=C(C(N)=O)C(=O)[C@@]2(O)C(O)=C3C(=O)c4c(O)cccc4[C@@](C)(O)[C@H]3C[C@@H]12 [TETRACYCLINE]
Not Active: IC50 [1] | IC50 [2] | IC50 [3] | IC50 [4] | IC50 [5] | Ki [5] | IC50 [6] | Ki [6] | IC50 [7] | Ki [7] | IC50 (Interstitial collagenase)

COC(=O)[C@@H]1[C@H]2C[C@H]3c4[nH]c5ccccc5c4CCN3C[C@@H]2CC[C@@H]1O [YOHIMBINE]
Not Active: IC50 [1] | IC50 [2] | IC50 [3] | IC50 [4] | IC50 [5] | Ki [5] | IC50 [6] | Ki [6] | IC50 [7] | Ki [7] | IC50 (Interstitial collagenase)

CC(C)(C)NCC(O)c1ccc(O)c(CO)c1 (configuration not stated) [ALBUTEROL]
Not Active: IC50 [1] | IC50 [2] | IC50 [3] | IC50 [4] | IC50 [5] | Ki [5] | IC50 [6] | Ki [6] | IC50 [7] | Ki [7] | IC50 (Interstitial collagenase)

CC(CCc1ccccc1)NCC(O)c1ccc(O)c(C(N)=O)c1 (configuration not stated) [LABETALOL]
Not Active: IC50 [1] | IC50 [2] | IC50 [3] | IC50 [4] | IC50 [5] | Ki [5] | IC50 [6] | Ki [6] | IC50 [7] | Ki [7] | IC50 (Interstitial collagenase)

CN(N=O)C(=O)N[C@@H](C=O)[C@@H](O)[C@H](O)[C@H](O)CO [STREPTOZOCIN]
Not Active: IC50 [1] | IC50 [2] | IC50 [3] | IC50 [4] | IC50 [5] | Ki [5] | IC50 [6] | Ki [6] | IC50 [7] | Ki [7] | IC50 (Interstitial collagenase)

Nc1nnc(-c2cccc(Cl)c2Cl)c(N)n1 [LAMOTRIGINE]
Not Active: IC50 [1] | IC50 [2] | IC50 [3] | IC50 [4] | IC50 [5] | Ki [5] | IC50 [6] | Ki [6] | IC50 [7] | Ki [7] | IC50 (Interstitial collagenase)

CC(C)(C)NCC(O)c1cc(O)cc(O)c1 (configuration not stated) [TERBUTALINE]
Not Active: IC50 [1] | IC50 [2] | IC50 [3] | IC50 [4] | IC50 [5] | Ki [5] | IC50 [6] | Ki [6] | IC50 [7] | Ki [7] | IC50 (Interstitial collagenase)

O=[N+]([O-])c1cc([As](=O)(O)O)ccc1O [ROXARSONE]
Not Active: IC50 [1] | Ki [1] | IC50 [2] | Ki [2] | IC50 [3] | Ki [3] | IC50 [4] | Ki [4] | IC50 [5] | Ki [5] | IC50 [6] | Ki [6] | IC50 [7] | Ki [7] | IC50 (Interstitial collagenase) | Ki (Interstitial collagenase)

CC(C)(C)NC(=O)[C@@H]1CN(Cc2cccnc2)CCN1C[C@@H](O)C[C@@H](Cc1ccccc1)C(=O)N[C@H]1c2ccccc2C[C@H]1O.O
Not Active: IC50 [1] | IC50 [2] | IC50 [3] | IC50 [4] | IC50 [5] | Ki [5] | IC50 [6] | Ki [6] | IC50 [7] | Ki [7] | IC50 (Interstitial collagenase)
